# According to patent US20250277028A1, “TARGETING AGENT” (JIKSAK BIOENGINEERING, INC., priority 2022, published 2025):
# Non-standard residues stand in square brackets, D forms with d. Residues, ends and D or L forms follow the SMILES beside them. *: point of attachment. Dolaproine = CO[C@@H]([C@@H]1CCCN1)[C@@H](C)C(=O)O; Dil = CC[C@H](C)[C@H](NC)[C@@H](CC(=O)O)OC; X1 = C[C@@H](N*)[C@@H](O)c1ccccc1; NMeV = CN[C@H](C(=O)O)C(C)C
# System: human motor neurons
# Experiment: Pharmacological effect (axonal amount, Tuj1) of antibody-MMAE conjugate
# Assay type: cell-based
# Settings: t-test, significance level p<0.05
# Method: Experiments were performed using human motor neurons, for which synaptogenesis was induced using microbeads coated with the extracellular domain of LRRTM2. Culture of cells, preparation of LRRTM2 beads and induction of presynapse were performed as described in Example 1.
# As the drug, a microtubule polymerization inhibitor monomethylauristatin E (MMAE: Cat. No. #HY-15575; MedChemExpress) was used. As the anti-SYT2 N-terminal antibody and the normal rabbit antibody for control, antibodies used in Example 1 were used. Conjugate of MMAE and the antibody was prepared using MagicLink™ kit (broadpharm). Preparation of conjugate was performed according to the manufacturer's protocols.
# After warming the neuronal medium at 37° C. for 30 minutes, 4-aminopyridine (Sigma Aldrich) was added to the medium to have a final concentration of 100 μM and mixed. In addition, conjugate was added to have a final concentration of 1 μg/mL and mixed. […]
# The axonal amount was obtained as the sum of the brightness (=(fluorescence intensity per pixel)×(pixel number)) of Tuj1 signals in the obtained fluorescence images. The relative amount of axon was calculated as the value normalized by the results obtained using the conjugate of the control normal rabbit antibody and MMAE set to 100%. […]
smiles,measurement,value
"CC[C@H](C)[C@@H]([C@@H](CC(=O)N1CCC[C@H]1[C@H](OC)[C@@H](C)C(=O)N[C@H](C)[C@@H](O)c1ccccc1)OC)N(C)C(=O)[C@@H](NC(=O)[C@@H](NC)C(C)C)C(C)C [MMAE, monomethyl auristatin E] (H-[NMeV]V[Dil][Dolaproine]-X1)","axonal amount, difference from the control antibody group",no significant differences
